In PubChem BioAssay (NCI) one finds TGI and GI50 data, which are given here for 25 molecules.

In brackets after ≈: the same amount, converted by molar mass.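 Tested at 5 concentrations; 48 h exposure; 96-well plates; endpoints linearly interpolated, else capped at highest concentration. At the GI50, growth is halved. TGI: concentration producing complete growth inhibition.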

Holding throughout (experiment): DTP human tumour cell line panel, 48 h
The test system of assay [1] is NCI-H23 lung.
For assay [2], the system named is SF-539 CNS.
Assay [3] relates to CCRF-CEM leukemia.
Assay [4] deals with MDA-MB-435.
The test system of assay [5] is SW-620 colon.
Assay [6] deals with DU-145 prostate.
The subject of assay [7] is BT-549 breast.
Assay [8] has as its system NCI-H460 lung.
The test system of assay [9] is SK-MEL-2 melanoma.
Assay [10] concerns OVCAR-5 ovarian.

In the case of `O=C1/C(=C/c2[nH]ncc2-c2ccc(Cl)cc2)C(=O)N(c2ccccc2)C1c1ccccc1` (stereo not drawn), the TGI was found to be 28.8 µM in assay [1]; 58.8 µM in assay [2]; 53.7 µM in [3]; 35.5 µM in assay [4]; 45.2 µM in assay [5]; 50.3 µM in assay [6]. In addition, the TGI was 43.7 µM in assay [7], above 100 µM in [8] and 35.2 µM in assay [9].

As for `OCCCSCCO`, the TGI in [1], in assay [2], in assay [3], in [4], in assay [10] and in assay [5] was above 100 µM in each case. In addition, the TGI in [6], in assay [7], in assay [8] and in [9] was above 100 µM throughout.

As for `O=C(Nc1ccc(-n2ccc3c(NC(=O)c4ccccc4)nccc32)cc1)Nc1cccc(C(F)(F)F)c1`, the GI50 is 3.28 µM in [1]; 1.75 µM in assay [2]; 1.27 µM in [3]; 4.57 µM in [4]; 8.72 µM in assay [10]; 4.96 µM in assay [5]. The values for the GI50 in [6], in assay [8] and in assay [9] were 4.2 µM, 2.74 µM and 15 µM, respectively. For the same molecule, the TGI in [1] came out at 17.6 µM; in assay [2], 18.4 µM; in assay [3] it was 5.55 µM; in assay [4], 21.3 µM; in assay [10], 22.2 µM; in assay [5] it was 18.9 µM. Besides, the TGI in assay [6] worked out at 14.8 µM; in [8], 13.4 µM; in assay [9], 30.3 µM.

For `COC(=O)C1CC23C4=C(CCC41)CCC1CN4CC(C)C(CC(OC(C)=O)C12COC(C)=O)C43O` (stereo not drawn), the TGI in [1], in [2], in [3], in [4], in [10] and in assay [5] was above 100 µM in each case. In addition, the TGI in [6], in assay [7], in assay [8] and in [9] was above 100 µM each time.

On to `CCOC(=O)c1c(-c2cccc(Cl)c2)c(C(=O)OC)c(C)c2sc(C=O)nc12`, for which the TGI was above 100 µM in [1]; 35.4 µM in [2]; 37 µM in assay [3]; 38.7 µM in assay [4]; 35.7 µM in [10]; above 100 µM in [5]. Besides, the TGI in assay [6] was 37.8 µM; in [7] it was 33.7 µM; in [8], 50.1 µM; in assay [9] it was 37.1 µM.

`Cc1n[n+]([O-])c(C)cc1[N+](=O)[O-]`: the concentration for total growth inhibition (TGI) in assay [1] was found to be 29.9 µM; in [2], 59.3 µM; in assay [3], 9.32 µM; in [4], 29 µM; in assay [10], 36.8 µM; in assay [5] it was 28.2 µM. The TGI in [6] was found to be 51.2 µM; in assay [7], 51.5 µM; in [8], 28.4 µM; in assay [9], 42.3 µM.

`Cc1oc(N)c(S(=O)(=O)c2cc3ccccc3n(O)c2=N)c1C`: the TGI in assay [1], in assay [2], in assay [4], in assay [10], in assay [5] and in assay [6] was above 100 µM each time. The total growth inhibition concentration (TGI) in assay [7], in assay [8] and in [9] was above 100 µM in each case.

As for `CC1(C(=O)O)C[C@](C)(C(=O)OCc2ccccc2)C[C@](C)(C(=O)OCc2ccccc2)C1` (stereo partly drawn), the TGI in assay [1] is 56.6 µM; in [2], 64.5 µM; in assay [3] it was above 100 µM; in [4], above 100 µM; in [10], above 100 µM; in assay [5] it was above 100 µM. Moreover, the TGI in assay [6] is above 100 µM; in [7] it was 65.6 µM; in [8], 57.5 µM; in assay [9] it was 39.3 µM.

`COc1cc(C2c3cc4c(cc3[C@@H](Nc3ccc(Oc5ccccc5)cc3)C3COC(=O)[C@H]23)OCO4)cc(OC)c1O` (stereo partly drawn): the TGI in [1] was 6.68 µM; in assay [2], above 28.2 µM; in assay [3], 4.38 µM; in assay [10], above 100 µM; in assay [5] it was above 100 µM; in assay [8] it was 12.2 µM. Further, the TGI in assay [9] was above 100 µM.

For the molecule `CC1=CC(O)C(C(O)(C(F)(F)F)C(F)(F)F)C(C)(C)C1` (stereo not drawn), the TGI in [1], in [2], in [3], in assay [10], in [5] and in assay [6] was above 10 µM throughout. Besides, the TGI in assay [7], in assay [8] and in assay [9] was above 10 µM throughout.

As for `Cc1cc2ccc(OC(=O)c3ccc(N=C(N)N)cc3)cc2oc1=O`, the TGI is 46.5 µM in assay [1]; 61.6 µM in [2]; above 100 µM in assay [3]; 58.1 µM in [4]; above 100 µM in assay [10]; 78.5 µM in assay [5]. For the same molecule, the TGI was above 100 µM in [6], 64.6 µM in [7], above 100 µM in assay [8] and 60.9 µM in assay [9].

As for `COc1ccc(-c2nn(-c3ccc(NC(=O)c4cc(Cl)cc(Cl)c4)cc3)cc2-c2ccncc2)cc1Cl`, the GI50 in [1] was above 100 µM; in assay [2] it was 2 µM; in [4] it was above 100 µM; in [5], above 100 µM; in assay [6] it was above 100 µM; in assay [8] it was 6.08 µM. Besides, the GI50 in [9] was 2.79 µM. For the same molecule, the TGI in assay [1], in [2], in assay [4], in [5], in [6] and in assay [8] was above 100 µM throughout. The TGI in assay [9] was above 100 µM.

`Nc1nnc(CCC(=O)Nc2cc(Cl)ccc2Cl)n1N`: the TGI in assay [1], in assay [2], in [3], in [10], in assay [5] and in [8] was above 100 µM each time. Moreover, in assay [9], the TGI is above 100 µM.

Regarding `O=C(CC(c1ccccc1)C1C(=O)NC(=S)NC1=O)c1ccc([N+](=O)[O-])cc1` (stereo not drawn), the TGI in [1], in [2], in [3], in [4], in [10] and in [5] was above 100 µM throughout. The TGI in assay [6], in assay [7], in [8] and in assay [9] was above 100 µM in each case.

Take `C[N+]1(CCC(=O)c2ccccc2)CCC2CCC(C2)C1` (stereo not drawn): the TGI in [1], in assay [2], in assay [3], in [4], in assay [10] and in assay [5] was above 100 µM in each case. Besides, the concentration for total growth inhibition (TGI) in assay [6], in [7], in assay [8] and in assay [9] was above 100 µM throughout.

With `COC(=O)c1cc(NC(=O)c2cc(NC(=O)Cc3c[nH]c4ccccc34)cn2C)cn1C`, the TGI in [1] was 83.5 µM; in assay [2] it was above 100 µM; in assay [3], above 100 µM; in assay [4], above 100 µM; in assay [10], above 100 µM; in [5] it was above 100 µM. Further, the total growth inhibition concentration (TGI) was above 100 µM in assay [6], above 100 µM in assay [7], above 100 µM in [8] and 68.1 µM in assay [9].

With `CCOCC(=O)N(C)c1cccc2c3c(n(C)c12)CCCCC3`, the concentration for total growth inhibition (TGI) in assay [1], in [2], in assay [3], in assay [10], in assay [5] and in assay [8] was above 100 µM in each case. The same molecule returned a TGI in [9] above 100 µM.

Turning to `CC1C(=O)c2cc3c(cc2CCN(C)Cc2c1ccc1c2OCO1)OCO3` (stereo not drawn), the GI50 is above 75 µg/mL in [1]; 71.2 µg/mL in assay [2]; 22 µg/mL in assay [3]; 47.7 µg/mL in assay [4]; above 75 µg/mL in assay [10]; above 75 µg/mL in assay [5]. For the same molecule, the GI50 is above 75 µg/mL in [6], 59 µg/mL (≈ 161 µM) in assay [7], 40.3 µg/mL in assay [8] and above 75 µg/mL in assay [9]. For the same molecule, the total growth inhibition concentration (TGI) in assay [1], in [2], in assay [3], in [4], in [10] and in [5] was above 75 µg/mL each time. In addition, the TGI in assay [6], in assay [7], in assay [8] and in [9] was above 75 µg/mL each time.

With `Cc1cc(C)c2c(=O)n(CC(O)CN3CCN(CCOCCO)CC3)sc2n1` (stereo not drawn), the TGI in assay [1] is 30.3 µM; in assay [2], 38.4 µM; in assay [3], above 100 µM; in assay [4], 32.8 µM; in [10], 34.8 µM; in [5] it was above 100 µM. For the same molecule, the TGI in assay [6] was 48.2 µM; in assay [7] it was 31.1 µM; in assay [8] it was 39 µM; in assay [9], 39.9 µM.

As to `O=S(=O)(O)c1ccc2c(N=Nc3ccc(N=Nc4ccccc4)cc3)c(O)c(S(=O)(=O)O)cc2c1`, the TGI in [1], in assay [2], in assay [3], in assay [4], in [10] and in assay [5] was above 100 µM each time. In addition, the TGI in assay [6], in assay [7], in assay [8] and in [9] was above 100 µM in each case.

For the molecule `CC1=C[C@@H](C)C[C@]2(C)CC[C@H](O2)[C@]23CC[C@](CO)(C[C@H](O2)[C@@H]2O[C@@](C)(CC2=O)[C@@H](O)[C@H]2CC[C@@]4(CCC[C@@H](O4)[C@H](C)C(=O)O[C@H]4C[C@H]([C@]5(O)OCC[C@H](C)[C@@H]5O)O[C@H]4C=C1)O2)O3`, the TGI in assay [3] was above 9.53 µM; in [4], above 10 µM; in assay [10], above 10 µM; in assay [5], above 10 µM; in assay [6] it was above 10 µM; in [7] it was 0.258 µM. In addition, the TGI in [8] is above 10 µM; in assay [9] it was above 2.45 µM.

`COc1ccc(-n2c3c(c4cc(O)ccc42)Cc2ccccc2C3=O)cc1`: the TGI in assay [1] was above 100 µM; in assay [2] it was above 100 µM; in assay [3] it was 27.3 µM; in assay [4], above 100 µM; in assay [5], above 100 µM; in assay [6], above 100 µM. Also, the TGI in [7], in assay [8] and in assay [9] was above 100 µM throughout.

As to `Cc1ccc2nc(-c3ccc(NC(=O)c4ccc(N)cc4)c(S(=O)(=O)O)c3)sc2c1`, the TGI in assay [1], in assay [3], in [4], in [10], in assay [5] and in assay [6] was above 100 µM in each case. Besides, the TGI in assay [7] and in assay [8] was above 100 µM throughout.

Turning to `CC(=O)Nc1ccc(C(=O)NN2C(=O)C(Cl)C2c2cccc([N+](=O)[O-])c2)cc1` (stereo not drawn), the TGI in [1], in [2], in [3], in [10], in assay [5] and in [8] was above 100 µM throughout. For the same molecule, in assay [9], the TGI is above 100 µM.

Regarding `Cn1c2[n+](c3nc(N)[nH]c(=O)c31)C1OC(C2)C(O)C1O` (stereo not drawn), the TGI in assay [1], in assay [2], in assay [3], in [10], in assay [5] and in assay [9] was above 100 µM each time.
